Experimental data: PMC12845261, “Design, Synthesis, and Biological Evaluation of N-Acyl-Hydrazone-Linked Quinazolinone Derivatives with Antioxidant, Antimicrobial, and Anticancer Potential” (Pharmaceuticals, 2025)
≈ marks a conversion by molar mass, not a printed value.

How the values were obtained:
[1] = tested on: E. coli ATCC 25922; assay: Qualitative antimicrobial activity, adapted Kirby-Bauer (inhibition zone); format: cell-based; settings: reference drug at 100 μg/mL
Description: (§1) For the evaluation of antimicrobial activity, the following reference strains were used: S. aureus ATCC 25923, E. faecalis ATCC 29212, E. coli ATCC 25922, P. aeruginosa ATCC 27853 and C. albicans ATCC 10231. The microbial suspensions were prepared at a density of 1.5 × 10^8 CFU/mL, corresponding to the McFarland 0.5 nephelometric standard. These suspensions were obtained from 18–24 h cultures developed on solid media (Mueller-Hinton for bacteria, Sabouraud for yeast). Antimicrobial activity was assessed using an adapted Kirby-Bauer method according to CLSI (Clinical and Laboratory Standards Institute). In addition to the 10 mg/mL stock solutions prepared in DMSO for each compound, a solvent control was used. Each stock solution (10 μL) was distributed in spot on the medium inoculated with the interest strain. After measuring the diameter of the inhibition zone (IZD) around the spot (mm), the results were expressed as the mean ± standard deviation (SD) for each compound tested in duplicate.

[2] = tested on: E. faecalis ATCC 29212; assay: as above; format: cell-based; settings: reference drug at 100 μg/mL
Description: as §1

[3] = tested on: P. aeruginosa ATCC 27853; assay: as above; format: cell-based; settings: reference drug at 100 μg/mL
Description: as §1

[4] = tested on: S. aureus ATCC 25923; assay: as above; format: cell-based; settings: reference drug at 100 μg/mL
Description: as §1

[5] = tested on: E. coli ATCC 25922; assay: Quantitative antimicrobial activity, serial binary microdilution (MIC, IC50); format: cell-based; settings: Escherichia coli, ATCC25922; E. coli ATCC 25922; reference drug
Description: (§2) For the evaluation of antimicrobial activity, the following reference strains were used: S. aureus ATCC 25923, E. faecalis ATCC 29212, E. coli ATCC 25922, P. aeruginosa ATCC 27853 and C. albicans ATCC 10231.
(§3) Quantitative analysis was performed using the method of serial binary microdilutions in liquid medium (Tryptone Soy Broth for bacteria and Sabouraud Broth for yeasts) in plates with 96 wells. Stock solutions of 10 mg/mL were made in DMSO, and the range of concentrations tested for each compound was 5000–0.16 μg/mL. Simultaneously, the DMSO control was carried out under the same working conditions. Each well was inoculated with 10 μL of microbial suspension, adjusted to a density of 1.5 × 10^8 CFU/mL prepared from 18 to 24 h cultures. After 24 h of incubation at 37 °C, microbial growth and multiplication were evaluated both macroscopically and spectrophotometrically at 620 nm to establish the MIC values. […] Blanks were made for each sample concentration, and the formula was applied: Microbial viability(%)=Asample−Ablank/Astrain control−Asterility control·100

[6] = tested on: E. faecalis ATCC 29212; assay: as above; format: cell-based; settings: Enterococcus faecalis, ATCC29212, reference drug
Description: as §2, §3

[7] = tested on: P. aeruginosa ATCC 27853; assay: as above; format: cell-based; settings: Pseudomonas aeruginosa, ATCC27853, reference drug
Description: as §2, §3

[8] = tested on: S. aureus ATCC 25923; assay: as above; format: cell-based; settings: Staphylococcus aureus, ATCC25923; S. aureus ATCC 25923; reference drug
Description: as §2, §3

[9] = tested on: E. coli ATCC 25922; assay: Microbicidal activity (MMC); format: cell-based; settings: reference drug
Description: (§4) For the evaluation of antimicrobial activity, the following reference strains were used: S. aureus ATCC 25923, E. faecalis ATCC 29212, E. coli ATCC 25922, P. aeruginosa ATCC 27853 and C. albicans ATCC 10231. To determine the MMCs, 5 μL of culture was taken from each well and distributed on solid medium. The plates were incubated for 20–24 h at 37 °C. The lowest concentration at which no microbial growth was observed was considered MMC.

[10] = tested on: E. faecalis ATCC 29212; assay: Microbicidal activity (MMC); format: cell-based; settings: reference drug
Description: as §4

[11] = tested on: P. aeruginosa ATCC 27853; assay: Microbicidal activity (MMC); format: cell-based; settings: reference drug
Description: as §4

[12] = tested on: S. aureus ATCC 25923; assay: Microbicidal activity (MMC); format: cell-based; settings: reference drug
Description: as §4

[13] = tested on: E. coli ATCC 25922; assay: Microbial adhesion, crystal violet (MICMA); format: cell-based; settings: reference drug
Description: as §2
(§5) Following quantitative analysis of antimicrobial activity, microbial adhesion was evaluated after methanol fixation and violet crystal staining (0.1%). The absorbance of the adhered biomass colored with violet crystal and resuspended in 33% acetic acid was measured at 490 nm.

[14] = tested on: E. faecalis ATCC 29212; assay: Microbial adhesion, crystal violet (MICMA); format: cell-based; settings: reference drug
Description: as §2, §5

[15] = tested on: P. aeruginosa ATCC 27853; assay: Microbial adhesion, crystal violet (MICMA); format: cell-based; settings: reference drug
Description: as §2, §5

[16] = tested on: S. aureus ATCC 25923; assay: Microbial adhesion, crystal violet (MICMA); format: cell-based; settings: reference drug
Description: as §2, §5

[17] = tested on: HT-29 (human colorectal adenocarcinoma); assay: Cytotoxicity, MTT assay; format: cell-based; settings: 24 h, tested range 3.125 to 50 µM
Description: (§6) For the cytotoxicity screening of the N-acyl-hydrazone derivatives, three cell lines were employed: HT-29 (human colorectal adenocarcinoma), A431 (human epidermoid carcinoma), and VERO (non-tumoral African green monkey kidney epithelial cells). All cell lines were obtained from the American Type Culture Collection (ATCC, Manassas, VA, USA), and maintained in appropriate culture media as follows: HT-29 and A431 cells were cultured in Dulbecco’s Modified Eagle Medium (DMEM), while VERO cells were cultured in Minimum Essential Medium (MEM). Both culture media were supplemented with 10% fetal bovine serum (FBS) and 1% penicillin-streptomycin mix, to formulate the complete culture medium. All cell lines were incubated at 37 °C in a humidified atmosphere containing 5% CO2. […] For the cytotoxicity screening, cells were seeded into sterile 96-well plates at an initial density of 1 × 10^4 cells/well and allowed to adhere for 24 h. Subsequently, cells were treated with increasing concentrations (3.125 to 50 µM) of compounds 1a–1f and 2 for 24 h. In parallel, 5-fluorouracil (5-FU, Sigma Aldrich, St. Louis, MO, USA) was included as a reference drug and tested over the same concentration range under identical experimental conditions. […] For the experimental control, culture medium was refreshed at the time of treatment application. […] Louis, MO, USA). Briefly, the culture media were discarded from each well and replaced with a fresh solution of MTT (1 mg/mL). Plates were incubated for 4 h at 37 °C, and the resulting formazan crystals were solubilized with isopropanol. The absorbance was measured at 550 nm using the FlexStation III multimodal reader (Molecular Devices, San Jose, CA, USA). All experiments were performed in triplicate and repeated in three independent assays. Cell viability was calculated as a percentage relative to the untreated control using the formula Cell Viability (%) = (Abs treated/Abs control) × 100. Data were processed using GraphPad Prism 6.0 and presented as mean ± standard deviation (SD). Statistical analysis was performed using one-way analysis of variance (ANOVA) followed by Dunnett’s post hoc test for comparison with the untreated control group.

[18] = tested on: VERO (non-tumoral African green monkey kidney epithelial cells); assay: Cytotoxicity, MTT assay; format: cell-based; settings: 24 h
Description: as §6

[19] = tested on: C. albicans ATCC 10231; assay: Qualitative antimicrobial activity, adapted Kirby-Bauer (inhibition zone); format: cell-based; settings: reference drug at 140 μg/mL
Description: as §1

[20] = tested on: C. albicans ATCC 10231; assay: Quantitative antimicrobial activity, serial binary microdilution (MIC, IC50); format: cell-based; settings: Candida albicans, ATCC10231, reference drug
Description: as §2, §3

[21] = tested on: C. albicans ATCC 10231; assay: Microbicidal activity (MMC); format: cell-based; settings: reference drug
Description: as §4

[22] = tested on: C. albicans ATCC 10231; assay: Microbial adhesion, crystal violet (MICMA); format: cell-based; settings: reference drug
Description: as §2, §5

[23] = Total antioxidant capacity (TAC), DPPH method; settings: 30 min, 517 nm, compound stock 1 mg/mL in methanol, reference ascorbic acid TAC = 100%
Description: The total antioxidant capacity (TAC) was evaluated using diphenyl-1-picrylhydrazyl free radical (DPPH) method. The TAC value was determined in relation to the antioxidant capacity of the reference (ascorbic acid, TAC = 100%). […] The maximum value was recorded for 1c (~45%), followed by 1f and 1a (~43%), while the minimum for 1e (~19%).
In this study, the TAC values were obtained using the most-known DPPH method, in which the intense violet colour of the free radical solution is decreasing. Stock solutions of compounds 1a–1f and 2 were prepared in absolute methanol at a concentration of 1 mg/mL. A stock solution of 2,2-diphenyl-1-picrylhydrazyl free radical was obtained in the same solvent, at a concentration of 2 × 10^−4 M. To 1.8 mL of DPPH solution was added 0.2 mL of each solution of the compounds 1a–1f and 2 and the mixture was left in the dark for 30 min, followed by measurements of the absorbance at 517 nm. The following equation was used to calculate TAC: TAC%=Abs0 min−Abs30 min/Abs0min·100 where Abs0 min refers to the initial absorbance of the DPPH free radical solution, and Abs 30 min refers to the absorbance of the solution of DPPH and the added compound after 30 min. Ascorbic acid was used as a reference.

O=C(O)c1cn(C2CC2)c2cc(N3CCNCC3)c(F)cc2c1=O [Ciprofloxacin, ciprofloxacin, reference compound]
IZD (100 μg/mL, mm) [1]: 34.00 ± 2.00 mm | IZD (100 μg/mL, mm) [2]: 8.33 ± 0.58 mm | IZD (100 μg/mL, mm) [3]: 15.33 ± 0.58 mm | IZD (100 μg/mL, mm) [4]: 17.33 ± 0.58 mm | MIC [5]: 0.2 µg/mL (≈ 0.604 µM) | MIC [6]: 0.78 µg/mL (≈ 2.35 µM) | MIC [7]: 0.39 µg/mL (≈ 1.18 µM) | MIC [8]: 0.78 µg/mL (≈ 2.35 µM) | MMC [9]: 0.78 µg/mL | MMC [10]: 6.25 µg/mL | MMC [11]: 0.39 µg/mL | MMC [12]: 1.56 µg/mL | MICMA [13]: <0.10 µg/mL | MICMA [14]: 0.78 µg/mL | MICMA [15]: 0.39 µg/mL | MICMA [16]: 0.39 µg/mL

O=c1[nH]cc(F)c(=O)[nH]1 [Compound 5-FU, 5-fluorouracil, reference compound]
IC50 [17]: not reached within the tested concentration range | Maximum reduction in viability ([18]; 50 µM): approximately 25% | IC50 ([18]; tested range 3.125 to 50 µM): not reached within the tested range

CC(=O)N1CCN(c2ccc(OCC3COC(Cn4ccnc4)(c4ccc(Cl)cc4Cl)O3)cc2)CC1 (stereo not drawn) [Ketoconazole, ketoconazole, reference compound]
IZD (140 μg/mL, mm) [19]: 6.5 ± 0.71 mm | MIC [20]: 8.75 µg/mL (≈ 16.5 µM) | MMC [21]: 35 µg/mL | MICMA [22]: 0.27 µg/mL

O=C1O[C@H]([C@@H](O)CO)C(O)=C1O [ascorbic acid, reference compound]
TAC (%) [23]: 100%
